Experimental data published in US20250144054A1, “SMALL MOLECULE STAT3 INHIBITOR FOR TREATING TRIPLE NEGATIVE BREAST CANCER” (UNIVERSITY OF MARYLAND, BALTIMORE, priority 2022, published 2025).
“And” between values parts separate entries of the source, which are not always exact repeats. Equal values may be shown once.

Tested on: STAT3
Experiment: Western blot of P-STAT3 (Y705), STAT3, Cyclin D1, Cleaved Caspase-3 in MDA-MB-231 cells
Format: cell-based, human
Conditions: MDA-MB-231, overnight
Procedure: (A) MDA-MB-231, SUM159, and 4T1 cell lines were treated with DMSO or LLL12B overnight and the expression levels of P-STAT3 (Y705), STAT3, Cyclin D1, and Cleaved Caspase-3 were analyzed by Western blot. GAPDH served as a protein loading control. (B) MDA-MB-231 cells were treated with DMSO or C188-9 overnight and the expression levels of P-STAT3 (Y705), STAT3, Cyclin D1, and Cleaved Caspase-3 were analyzed by Western blot. (C) MDA-MB-231, SUM159, and 4T1 cells were seeded in a 96-well plate and treated with DMSO or LLL12B for 5 hours and a Caspase-3/7 Fluorescence Assay Kit was used to detect the activation of caspase-3/7. (D) MDA-MB-231, SUM159, and 4T1 cell lines were treated with DMSO or LLL12B for 8-12 hours, and flow cytometry was performed to analyze annexin V and PI staining. The quantification of apoptotic cells was shown in the right panel. ** P<0.01, *** P<0.001 and ****P<0.0001.
SiRNA and transfection. STAT3 siRNA and Negative Control siRNA (Cell Signaling Technology, Danvers, MA, USA) were used to knock down STAT3 in MDA-MB-231, SUM159, and 4T1 cell lines. Cells were transfected with STAT3 siRNA or Negative Control siRNA using Lipofectamine RNAiMAX (Invitrogen, Carlsbad, CA, USA) according to the manufacturer's instructions. After 72 hours, cell viability was examined by MTT cell viability assay, and the transfection efficiency was examined by western blot.
Western blot. Cells were collected and total protein was extracted using cell lysis buffer (Cell Signaling Technology, Danvers, MA, USA). Protein concentration was determined using the Pierce BCA Protein Assay Kit (Thermo Fisher Scientific, Waltham, MA, USA) according to the manufacturer's instructions. Equal amounts of protein were separated by 10% SDS-PAGE gels and transferred to PVDF membranes. Membranes were blocked in 5% non-fat milk at room temperature and probed with specific antibodies P-STAT3 (Y705), STAT3, Cyclin D1, Cleaved Caspase-3, P-STAT1 (Y701), STAT1, P-ERK, ERK or GAPDH (1:1000, Cell Signaling Technology, Danvers, MA, USA) at 4° C. overnight. The blots were visualized using SuperSignal™ West Femto Maximum Sensitivity Substrate (Thermo Fisher Scientific, Waltham, MA, USA) and an Amersham Imager 680 (GE Healthcare Life Sciences, Marlborough, MA, USA) after incubating with horseradish peroxidase (HRP)-conjugated anti-rabbit secondary antibody (1:5000, Cell Signaling Technology, Danvers, MA, USA).

## COc1ccc(S(=O)(=O)Nc2cc(-c3c(O)ccc4ccccc34)c(O)c3ccccc23)cc1 [C188-9, reference compound]
  concentration that inhibited P-STAT3 and Cyclin D1 in Western blot: 25 µM and 50 µM
